Holding throughout (format): physicochemical
A short description of data set [1]: Moisture content by simultaneous thermal analyzer (STA). To be noted: for % Moisture content / Enthalpy change: by STA. As for the experimental part: (§1) Following micronization, Particle Size Distribution (PSD) analysis was performed by wet dispersion. […] FIGS. 8A and 8B illustrate the SEM imagery of micronized ibuprofen at a 10 μm scale for Batch 1 and Batch 2, respectively. FIGS. 9A and 9B illustrate the SEM imagery of micronized ibuprofen at a 2 μm scale for Batch 1 and Batch 2, respectively. FIGS. 10A and 10B illustrate the PXRD of micronized ibuprofen for Batch 1 and Batch 2, respectively. Table 7 contains the data for moisture content of micronized ibuprofen as determined by simultaneous thermal analyzer (STA), which tests both by DTA (Differential Temperature Analysis) and TG (Thermogravimetry). FIGS. 11A, 11B, and 11C illustrate the hygroscopicity as determined GVS for coarse ibuprofen (FIG. 11A), Batch 1 (FIG. 11B), and Batch 2 (FIG. 11C).

The nature of data set [2]: Stability study under accelerated degradation conditions, related substances. The conditions noted are these: 40° C. and 75% relative humidity. The method, then: A stability study was performed to determine the compatibility of the combined APIs under accelerated degradation conditions. Separate control samples of micronized cromolyn sodium (Sample A) and micronized ibuprofen (Sample B) were included in the study to be used as a comparator to the blend of Cromolyn/Ibuprofen (Sample C). The study was performed at 40° C. and 75% relative humidity. Measurements were taken at time 0, 1 month, 2 months, and 3 months.

Data set [3] can be described thus: Particle size determination (PSD) of coarse ibuprofen. To be noted: for D10 / D50 / D90: Effect of Dispersant. An excerpt: (§2) Coarse ibuprofen was characterized using PSD, PXRD, and GVS. […]
The average particle size determinations are illustrated in FIG. 5. The parameters and results were as follows: concentration 0.0406% Vol; span 1.493; uniformity 0.459; specific surface area 0.239 m^2/g; surface weighted mean […] 25.136 μm; and vol. weighted mean D[4,3] 62.020 μm.

Data set [4] can be described thus: Gravimetric vapor sorption (GVS). To be noted: for weight gain upon exposure to moisture (moisture adsorbed on the surface): adsorption-desorption isotherm. As for the experimental part: Ibuprofen was characterized to determine the parameters necessary to administer a therapeutically effective amount using an inhalation delivery system. The methodology included particle size determination (PSD); powdered x-ray crystallization diffraction (PXRD); and gravimetric vapor sorption (GVS).
as §1

A short description of data set [5]: Powdered x-ray diffraction (PXRD).
Text: Ibuprofen was characterized to determine the parameters necessary to administer a therapeutically effective amount using an inhalation delivery system. The methodology included particle size determination (PSD); powdered x-ray crystallization diffraction (PXRD); and gravimetric vapor sorption (GVS). The methods determined that coarse ibuprofen was crystalline and non-hygroscopic. The results are summarized in Example 3.
as §2

The nature of data set [6]: Solubility and dispersibility seen in PSD by wet dispersion.
Text: The micronization may be performed on coarse ibuprofen using an air-jet mill or similar apparatus, such as a grinder or a mill. Other methods to micronize the ibuprofen include milling, bashing, cutting, or crushing. For example, two batches were micronized with an air-jet mill using a feed gas pressure of about 45 psi and a grinding pressure of about 45 psi. One batch was micronized a second time under the same conditions. Optionally, the ibuprofen may be micronized more than once. After micronization, particle size distribution was performed on the micronized ibuprofen by wet dispersion.
as §1

Where [7] appears, read: average particle size determination, FIG. 5.

We go through 5 compounds from patent US10561612B2, “Powdered formulations of cromolyn sodium and ibuprofen” (AZTherapies, Inc., priority 2017, dated 2020).

Where two headings read alike, the source gives them in different places. Bounds are passed on as bounds.

Turning to `CC(C)Cc1ccc(C(C)C(=O)O)cc1` (stereo not shown) [Batch 1, ibuprofen], in data set [1], the “% Moisture content” value worked out at 1.19% and the Enthalpy change is on record as 120.5 J/g.

Consider `CC(C)Cc1ccc(C(C)C(=O)O)cc1` (stereo not shown) [Batch 2, ibuprofen], for which, in data set [1], the “% Moisture content” value worked out at 1.14% and the Enthalpy change was determined as 94.4 J/g.

Consider `O=C(O)c1cc(=O)c2c(OCC(O)COc3cccc4oc(C(=O)O)cc(=O)c34)cccc2o1` [Sample A, cromolyn sodium], for which the “Individual Related Substances ≥ 0.5%, cromolyn sodium” value in data set [2] (1 month), in data set [2] (2 months), in data set [2] (3 months) and in data set [2] (Initial T = 0) was 0.11% in each case. The “Total Impurities, cromolyn sodium” value in data set [2] (1 month), in data set [2] (2 months), in data set [2] (3 months) and in data set [2] (Initial T = 0) was 0.1% in each case.

In data set [3] (T (Day) 0), `CC(C)Cc1ccc(C(C)C(=O)O)cc1` (stereo not shown) [coarse ibuprofen, ibuprofen] gave a D10 of 22.586 μm, a D50 of 57.693 μm and a D90 of 108.743 μm. In data set [3] (T (Day) 1), the D10 was found to be 22.401 μm, the D50 is recorded as 57.611 μm and the D90 stood at 108.724 μm. In data set [3] (setting [7]), the span was determined as 1.493, the specific surface area is on record as 0.239 m^2/g, the “surface weighted mean D[2,3]” value was 25.136 μm and the uniformity turned out to be 0.459. Moreover, the “vol. weighted mean D[4,3]” value in data set [3] (setting [7]) was found to be 62.020 μm. Also, in data set [4], the hygroscopicity entry is “non-hygroscopic” and the “weight gain upon exposure to moisture (moisture adsorbed on the surface)” value (“weight gain upon exposure to moisture” below) was less than 0.2%. For the same compound, the “weight gain upon exposure to moisture” value in data set [4] (listed as Ibuprofen) is less than 0.2%. Besides, in data set [4] (listed as ibuprofen), the “weight gain upon exposure to moisture” value is listed as less than 0.2% and the hygroscopicity entry is listed as “non-hydroscopic”. Further, in data set [4] (listed as Coarse ibuprofen), the hygroscopicity result is “non-hydroscopic”. Moreover, in data set [1], the “% Moisture content” value was 0.20% and the Enthalpy change amounted to 131.0 J/g. For the same compound, the “Inference (crystalline or amorphous)” value in data set [1] (from the enthalpy change) is “Crystalline”. The crystallinity entry in data set [5] is “crystalline”.

`CC(C)Cc1ccc(C(C)C(=O)O)cc1` (stereo not shown) [micronized ibuprofen, ibuprofen]: the “weight gain upon exposure to moisture” value in data set [4] (listed as Micronize ibuprofen) and in data set [4] (listed as Micronized ibuprofen) was approximately 3% in each case. The “Individual Related Substances ≥ 0.5%, RRT 0.93, ibuprofen” value in data set [2] (1 month), in data set [2] (2 months), in data set [2] (3 months) and in data set [2] (Initial T = 0) was 0.07% each time. Besides, the “Individual Related Substances ≥ 0.5%, RRT 1.11, ibuprofen” value in data set [2] (1 month) is recorded as 0.05%; in data set [2] (2 months), “<LOQ”; in data set [2] (3 months), “<LOQ”. The “Total Impurities, ibuprofen” value in data set [2] (1 month), in data set [2] (2 months), in data set [2] (3 months) and in data set [2] (Initial T = 0) was 0.1% in each case. In addition, in data set [6], the dispersibility in water result is given as “not dispersible in water”. The “solubility in organic solvents” value in data set [6] is recorded as “highly soluble in organic solvents”. Also, the “solubility in surfactant containing aqueous media” value in data set [6] is “soluble in different surfactants containing aqueous media even at low concentrations of the surfactant”.
